Assay results published in ChEMBL document CHEMBL1155372, “Design and synthesis of novel deoxybenzoin derivatives as FabH inhibitors and anti-inflammatory agents” (Bioorg Med Chem Lett, 2010).
≈ marks a conversion by molar mass, not a printed value.

Experiments:
Escherichia coli = experiment: Antibacterial activity against Escherichia coli ATCC 35218; assay type: functional
Bacillus subtilis = experiment: Antibacterial activity against Bacillus subtilis ATCC 6633; assay type: functional
Pseudomonas aeruginosa = experiment: Antibacterial activity against Pseudomonas aeruginosa ATCC 2785; assay type: functional
Staphylococcus aureus = experiment: Antibacterial activity against Staphylococcus aureus ATCC 6538; assay type: functional
Candida albicans = experiment: Antifungal activity against Candida albicans ATCC 10231; assay type: functional
Aspergillus niger = experiment: Antifungal activity against Aspergillus niger ATCC 16404; assay type: functional
Trichophyton rubrum = experiment: Antifungal activity against Trichophyton rubrum ATCC 10218
[1] = Inhibition of Escherichia coli FabH expressed after 25 mins by liquid scintillation counting

SMILES	MIC (Escherichia coli)	MIC (Bacillus subtilis)	MIC (Pseudomonas aeruginosa)	MIC (Staphylococcus aureus)	MIC (Candida albicans)	MIC (Aspergillus niger)	MIC (Trichophyton rubrum)	IC50 [1]
Oc1ccc(/N=C(/Cc2ccc(Cl)cc2)c2ccc(O)c(O)c2O)cc1	25 µg/mL (≈ 67.6 µM)	50 µg/mL (≈ 135 µM)	50 µg/mL (≈ 135 µM)	25 µg/mL (≈ 67.6 µM)	> 50 µg/mL	> 50 µg/mL	> 50 µg/mL	–
Oc1ccc(/N=C(/Cc2ccc(Cl)cc2)c2ccc(O)cc2O)cc1	6.25 µg/mL (≈ 17.7 µM)	25 µg/mL (≈ 70.7 µM)	12.5 µg/mL (≈ 35.3 µM)	> 50 µg/mL	> 50 µg/mL	> 50 µg/mL	> 50 µg/mL	20.5 µM
Oc1ccc(/C(Cc2ccc(Cl)cc2)=N\c2ccc(Br)cc2)c(O)c1	3.12 µg/mL (≈ 7.5 µM)	12.5 µg/mL (≈ 30 µM)	3.12 µg/mL (≈ 7.5 µM)	25 µg/mL (≈ 60 µM)	> 50 µg/mL	> 50 µg/mL	> 50 µg/mL	9.1 µM
Cc1ccc(/N=C(/Cc2ccc(Cl)cc2)c2ccc(O)c(O)c2)cc1	25 µg/mL (≈ 71.1 µM)	50 µg/mL (≈ 142 µM)	50 µg/mL (≈ 142 µM)	50 µg/mL (≈ 142 µM)	> 50 µg/mL	> 50 µg/mL	> 50 µg/mL	–
Cc1ccc(/N=C(/Cc2ccc(F)cc2)c2ccc(O)c(O)c2)cc1	25 µg/mL (≈ 74.5 µM)	25 µg/mL (≈ 74.5 µM)	50 µg/mL (≈ 149 µM)	12.5 µg/mL (≈ 37.3 µM)	> 50 µg/mL	> 50 µg/mL	> 50 µg/mL	–
O=C(Cc1ccc(Cl)cc1)c1ccc(O)c(O)c1O	–	–	–	–	> 50 µg/mL	> 50 µg/mL	> 50 µg/mL	–
Oc1ccc(/N=C(/Cc2ccc(F)cc2)c2ccc(O)cc2O)cc1	12.5 µg/mL (≈ 37.1 µM)	50 µg/mL (≈ 148 µM)	25 µg/mL (≈ 74.1 µM)	25 µg/mL (≈ 74.1 µM)	> 50 µg/mL	> 50 µg/mL	> 50 µg/mL	–
Oc1ccc(/C(Cc2ccc(Cl)cc2)=N\c2ccc(Cl)cc2)c(O)c1O	12.5 µg/mL (≈ 32.2 µM)	50 µg/mL (≈ 129 µM)	25 µg/mL (≈ 64.4 µM)	50 µg/mL (≈ 129 µM)	> 50 µg/mL	> 50 µg/mL	> 50 µg/mL	–
O=[N+]([O-])c1ccc(/N=C(/Cc2ccc(Cl)cc2)c2ccc(O)c(O)c2O)cc1	50 µg/mL (≈ 125 µM)	50 µg/mL (≈ 125 µM)	50 µg/mL (≈ 125 µM)	50 µg/mL (≈ 125 µM)	> 50 µg/mL	> 50 µg/mL	> 50 µg/mL	–
Oc1ccc(/C(Cc2ccc(F)cc2)=N\c2ccc(Br)cc2)c(O)c1O	25 µg/mL (≈ 60.1 µM)	25 µg/mL (≈ 60.1 µM)	25 µg/mL (≈ 60.1 µM)	25 µg/mL (≈ 60.1 µM)	> 50 µg/mL	> 50 µg/mL	> 50 µg/mL	–
Oc1ccc(/N=C(/Cc2ccc(F)cc2)c2ccc(O)c(O)c2O)cc1	25 µg/mL (≈ 70.8 µM)	50 µg/mL (≈ 142 µM)	50 µg/mL (≈ 142 µM)	50 µg/mL (≈ 142 µM)	> 50 µg/mL	> 50 µg/mL	> 50 µg/mL	63.4 µM
Oc1ccc(/N=C(/Cc2ccc(Cl)cc2)c2ccc(O)c(O)c2)cc1	25 µg/mL (≈ 70.7 µM)	50 µg/mL (≈ 141 µM)	50 µg/mL (≈ 141 µM)	50 µg/mL (≈ 141 µM)	> 50 µg/mL	> 50 µg/mL	> 50 µg/mL	–
Oc1ccc(/C(Cc2ccc(F)cc2)=N\c2ccc(Cl)cc2)c(O)c1	1.56 µg/mL (≈ 4.39 µM)	50 µg/mL (≈ 141 µM)	1.56 µg/mL (≈ 4.39 µM)	50 µg/mL (≈ 141 µM)	> 50 µg/mL	> 50 µg/mL	> 50 µg/mL	3.9 µM
O=C(Cc1ccc(F)cc1)c1ccc(O)cc1O	–	–	–	–	> 50 µg/mL	> 50 µg/mL	> 50 µg/mL	–
Oc1ccc(/C(Cc2ccc(Cl)cc2)=N\c2ccc(Cl)cc2)cc1O	6.25 µg/mL (≈ 16.8 µM)	50 µg/mL (≈ 134 µM)	6.25 µg/mL (≈ 16.8 µM)	50 µg/mL (≈ 134 µM)	> 50 µg/mL	> 50 µg/mL	> 50 µg/mL	–
NC[C@H]1O[C@H](O[C@H]2[C@H](O)[C@@H](O[C@H]3O[C@H](CO)[C@@H](O)[C@H](N)[C@H]3O)[C@H](N)C[C@@H]2N)[C@H](N)[C@@H](O)[C@@H]1O [BEKANAMYCIN]	3.12 µg/mL (≈ 6.46 µM)	0.39 µg/mL (≈ 0.807 µM)	3.12 µg/mL (≈ 6.46 µM)	1.56 µg/mL (≈ 3.23 µM)	–	–	–	–

SMILES	MIC (Escherichia coli)	MIC (Bacillus subtilis)	MIC (Pseudomonas aeruginosa)	MIC (Staphylococcus aureus)	MIC (Candida albicans)	MIC (Aspergillus niger)	MIC (Trichophyton rubrum)	IC50 [1]
Oc1ccc(/N=C(/Cc2ccc(F)cc2)c2ccc(O)c(O)c2)cc1	50 µg/mL (≈ 148 µM)	25 µg/mL (≈ 74.1 µM)	50 µg/mL (≈ 148 µM)	50 µg/mL (≈ 148 µM)	> 50 µg/mL	> 50 µg/mL	> 50 µg/mL	–
Oc1ccc(/C(Cc2ccc(F)cc2)=N\c2ccc(Cl)cc2)cc1O	6.25 µg/mL (≈ 17.6 µM)	25 µg/mL (≈ 70.3 µM)	6.25 µg/mL (≈ 17.6 µM)	25 µg/mL (≈ 70.3 µM)	> 50 µg/mL	> 50 µg/mL	> 50 µg/mL	–
O=[N+]([O-])c1ccc(/N=C(/Cc2ccc(Cl)cc2)c2ccc(O)c(O)c2)cc1	25 µg/mL (≈ 65.3 µM)	25 µg/mL (≈ 65.3 µM)	25 µg/mL (≈ 65.3 µM)	12.5 µg/mL (≈ 32.7 µM)	> 50 µg/mL	> 50 µg/mL	> 50 µg/mL	–
Oc1ccc(/C(Cc2ccc(Cl)cc2)=N\c2ccc(Br)cc2)cc1O	12.5 µg/mL (≈ 30 µM)	25 µg/mL (≈ 60 µM)	12.5 µg/mL (≈ 30 µM)	25 µg/mL (≈ 60 µM)	> 50 µg/mL	> 50 µg/mL	> 50 µg/mL	–
O=C(Cc1ccc(Cl)cc1)c1ccc(O)c(O)c1	–	–	–	–	> 50 µg/mL	> 50 µg/mL	> 50 µg/mL	–
O=C(Cc1ccc(F)cc1)c1ccc(O)c(O)c1	–	–	–	–	> 50 µg/mL	> 50 µg/mL	> 50 µg/mL	–
O=C(Cc1ccc(Cl)cc1)c1ccc(O)cc1O	–	–	–	–	> 50 µg/mL	> 50 µg/mL	> 50 µg/mL	–
Oc1ccc(/C(Cc2ccc(F)cc2)=N\c2ccc(Br)cc2)c(O)c1	3.12 µg/mL (≈ 7.81 µM)	50 µg/mL (≈ 125 µM)	6.25 µg/mL (≈ 15.6 µM)	50 µg/mL (≈ 125 µM)	> 50 µg/mL	> 50 µg/mL	> 50 µg/mL	8.3 µM
O=[N+]([O-])c1ccc(/N=C(/Cc2ccc(F)cc2)c2ccc(O)c(O)c2)cc1	25 µg/mL (≈ 68.2 µM)	50 µg/mL (≈ 136 µM)	25 µg/mL (≈ 68.2 µM)	50 µg/mL (≈ 136 µM)	> 50 µg/mL	> 50 µg/mL	> 50 µg/mL	–
Oc1ccc(/C(Cc2ccc(F)cc2)=N\c2ccc(Br)cc2)cc1O	12.5 µg/mL (≈ 31.2 µM)	25 µg/mL (≈ 62.5 µM)	25 µg/mL (≈ 62.5 µM)	50 µg/mL (≈ 125 µM)	> 50 µg/mL	> 50 µg/mL	> 50 µg/mL	–
O=C(Cc1ccc(F)cc1)c1ccc(O)c(O)c1O	–	–	–	–	> 50 µg/mL	> 50 µg/mL	> 50 µg/mL	–
O=[N+]([O-])c1ccc(/N=C(/Cc2ccc(F)cc2)c2ccc(O)c(O)c2O)cc1	25 µg/mL (≈ 65.4 µM)	50 µg/mL (≈ 131 µM)	25 µg/mL (≈ 65.4 µM)	25 µg/mL (≈ 65.4 µM)	> 50 µg/mL	> 50 µg/mL	> 50 µg/mL	–
Oc1ccc(/C(Cc2ccc(F)cc2)=N\c2ccc(Cl)cc2)c(O)c1O	12.5 µg/mL (≈ 33.6 µM)	50 µg/mL (≈ 134 µM)	12.5 µg/mL (≈ 33.6 µM)	50 µg/mL (≈ 134 µM)	> 50 µg/mL	> 50 µg/mL	> 50 µg/mL	–
Cc1ccc(/N=C(/Cc2ccc(Cl)cc2)c2ccc(O)c(O)c2O)cc1	50 µg/mL (≈ 136 µM)	25 µg/mL (≈ 68 µM)	50 µg/mL (≈ 136 µM)	25 µg/mL (≈ 68 µM)	> 50 µg/mL	> 50 µg/mL	> 50 µg/mL	–
CC1(C)S[C@@H]2[C@H](NC(=O)Cc3ccccc3)C(=O)N2[C@H]1C(=O)O [PENICILLIN G]	6.25 µg/mL (≈ 18.7 µM)	1.56 µg/mL (≈ 4.67 µM)	6.25 µg/mL (≈ 18.7 µM)	1.56 µg/mL (≈ 4.67 µM)	–	–	–	–
Oc1ccc(/C(Cc2ccc(Cl)cc2)=N\c2ccc(Br)cc2)c(O)c1O	12.5 µg/mL (≈ 28.9 µM)	50 µg/mL (≈ 116 µM)	25 µg/mL (≈ 57.8 µM)	50 µg/mL (≈ 116 µM)	> 50 µg/mL	> 50 µg/mL	> 50 µg/mL	–
